Target: T1, Kv7.2/7.3 (Homo sapiens, UniProt O43525+O43526)
T1 construct: host or cells: HEK cells, tetracycline-inducible expression
Experiment: Kv7.2/7.3 activation assay, QPatch planar patch-clamp, single concentration screen
Format: cell-based
Parameters: key: <1.2-fold increase over baseline (−); +/−: as a range from <1.2-fold increase over baseline (−) up to >6-fold increase over baseline (+++); as a range from <1.2-fold increase over baseline (−) up to >6-fold increase over baseline (+++); as a range from <1.2-fold increase over baseline (−) up to >6-fold increase over baseline (+++); >6-fold increase over baseline (+++)
Conditions: Kv7.2/Kv7.3 co-expressing HEK cells, compound 3 μM, steady-state current at end of 2 s pulse to −30 mV
Method: The ability of compounds to potentiate K-currents in Kv7.2/7.3 containing HEK cells was assessed using planar patch-clamp on the QPatch automated screening platform.
Cell Line: The hKv7.2/7.3 cell line was obtained from Chantest (Cleveland, OH 44128) cat. #CT6147. These HEK cells will express the Kv7.2/7.3 ion channels when induced.
Cell Culture: Cells were maintained in a media containing DMEM/F12; 50/50 (GIBCO cat. #11330), 10% Fetal Bovine Serum (FBS) (GIBCO cat. #26140), 100 units/mL Penicillin-Streptomycin (GIBCO cat. #15140), 0.005 mg/mL Blasticidin (INVIVOGEN cat. #ant-bl-1), 0.5 mg/mL Geneticin (GIBCO cat. #10131), 0.1 mg/ml Zeocin (GIBCO cat. #R25001). Cells used in the electrophysiology assay were maintained in a media without Blasticidin, Geneticin and Zeocin for 2 days and channel expression was induced by adding tetracycline (BIOLINE cat. #BIO-87030) at a final concentration of 1 mg/mL. Cells were grown in T-175 flask to ˜75% confluency. Currents were recorded 24 hours after channel induction.
Compound Plates: Test compounds were prepared by performing serial dilutions on a Biomek NX^P (BECKMAN COULTER). Final dilutions were made in external recording solution with a final DMSO concentration of 0.1% DMSO. For single concentration screens each plate had 10 μM retigabine as a positive control and 0.1% DMSO as a negative control.
Electrophysiology: On the day of the experiment cells were washed with Hank's Balanced Salt Solution (HBBS) (GIBCO cat. #14175) and harvested with Tryple (GIBCO cat. #12604). Cells were then centrifuged at 2000 rpm for 5 minutes and resuspended in CHO-S-SFM (GIBCO cat. #12052) at ˜3×10^6 cells/mL. Cells were stirred for 30 minutes before experiments were started. External recording solution contained (in mM): NaCl (145), KCl (4), CaCl2 (2), MgCl2 (1), HEPES (10) and Glucose (10); pH was adjusted to 7.4 with NaOH and the osmolarity was adjusted to 300-305 mOsM with sucrose if necessary. Internal solution contained (in mM): KCl (125), KF (10), EGTA (5), Na2ATP (5), MgCl2 (3.2), HEPES (5); pH was adjusted to 7.2 with KOH and the osmolarity was adjusted to 298-302 mOsM with sucrose.
Potassium channel activity was measured on the QPatch HTX (Sophion Bioscience) using QPlates with 48-wells/plate. Each cell was taken as an independent experiment and only one compound was tested per well. Potassium channel activity was elicited by holding at −80 mV and stepping to −30 mV for 2 s followed by a 100 ms pulse to −120 mV.
Single concentration screen: Baseline conditions were obtained by recording 5 sweeps in the external solution only, this was repeated for three applications of the external solution. […] The steady-state current at the end of the 2 s pulse to −30 mV was measured to determine the fold increase from baseline.

Kv7.2/7.3 Activity: increase in current over baseline | SMILES
+ | CC(C)(C)CC(=O)Nc1nc2ccccc2n1C1CCC1 [Example 1, N-(1-cyclobutyl-1H-benzo[d]imidazol-2-yl)-3,3-dimethylbutanamide]
+ | CC(C)(C)CC(=O)Nc1nc2ccccc2n1-c1ccccc1 [Example 2, 3,3-dimethyl-N-(1-phenyl-1H-benzo[d]imidazol-2-yl)butanamide]
+/− | COc1ccc2nc(NC(=O)[C@@H](C)C(C)C)n(C(C)C)c2c1 [Example 4, (S)-N-(1-isopropyl-6-methoxy-1H-benzo[d]imidazol-2-yl)-2,3-dimethylbutanamide]
+ | CC(C)[C@H](C)C(=O)Nc1nc2ccc(C#N)cc2n1C1CCC1 [Example 6, (S)-N-(6-cyano-1-cyclobutyl-1H-benzo[d]imidazol-2-yl)-2,3-dimethylbutanamide]
+ | CC(C)(O)CC(=O)Nc1nc2ccc(C#N)cc2n1C1CCC1 [Example 8, N-(6-cyano-1-cyclobutyl-1H-benzo[d]imidazol-2-yl)-3-hydroxy-3-methylbutanamide]
+ | N#Cc1ccc2nc(NC(=O)C3CC(F)(F)C3)n(C3CCC3)c2c1 [Example 9, N-(6-cyano-1-cyclobutyl-1H-benzo[d]imidazol-2-yl)-3,3-difluorocyclobutane-1-carboxamide]
+ | N#Cc1ccc2nc(NC(=O)[C@@H]3C[C@@H]4CC[C@H]3C4)n(C3CCC3)c2c1 [Example 10, (1S,2R,4R)-N-(6-cyano-1-cyclobutyl-1H-benzo[d]imidazol-2-yl)bicyclo[2.2.1]heptane-2-carboxamide]
++ | CC1(C)C[C@@H]1C(=O)Nc1nc2ccc(C#N)cc2n1C1CCC1 [Example 11, (S)-N-(6-cyano-1-cyclobutyl-1H-benzo[d]imidazol-2-yl)-2,2-dimethylcyclopropane-1-carboxamide]
+/− | COC(C)(C)CC(=O)Nc1nc2ccc(C#N)cc2n1C1CCC1 [Example 12, N-(6-cyano-1-cyclobutyl-1H-benzo[d]imidazol-2-yl)-3-methoxy-3-methylbutanamide]
+/− | C[C@H](C(=O)Nc1nc2ccc(C#N)cc2n1C1CCC1)C(C)(C)O [Example 13, (S)-N-(6-cyano-1-cyclobutyl-1H-benzo[d]imidazol-2-yl)-3-hydroxy-2,3-dimethylbutanamide]
+/− | CC(C)[C@@H](C)C(=O)Nc1nc2ccc(C#N)cc2n1C1CCC1 [Example 14, (R)-N-(6-cyano-1-cyclobutyl-1H-benzo[d]imidazol-2-yl)-2,3-dimethylbutanamide]
+/− | CC(C)(O)[C@H]1C[C@@H]1C(=O)Nc1nc2ccc(C#N)cc2n1C1CCC1 [Example 15, (1S,2S)-N-(6-cyano-1-cyclobutyl-1H-benzo[d]imidazol-2-yl)-2-(2-hydroxypropan-2-yl)cyclopropane-1-carboxamide]
+/− | C[C@](O)(C(=O)Nc1nc2ccc(C#N)cc2n1C1CCC1)C(F)(F)F [Example 16, (S)-N-(6-cyano-1-cyclobutyl-1H-benzo[d]imidazol-2-yl)-3,3,3-trifluoro-2-hydroxy-2-methylpropanamide]
++ | CC(O)(CC(=O)Nc1nc2ccc(C#N)cc2n1C1CCC1)c1ccccc1 (centres unmarked) [Example 17, N-(6-cyano-1-cyclobutyl-1H-benzo[d]imidazol-2-yl)-3-hydroxy-3-phenylbutanamide]
+ | C[C@H](C(=O)Nc1nc2ccc(C#N)cc2n1C1CCC1)[C@@](C)(O)c1ccccc1 [Example 18, (2S,3R)-N-(6-cyano-1-cyclobutyl-1H-benzo[d]imidazol-2-yl)-3-hydroxy-2-methyl-3-phenylbutanamide]
+ | C[C@H](C(=O)Nc1nc2ccc(C#N)cc2n1C1CCC1)[C@](C)(O)c1ccccc1 [Example 19, (2S,3S)-N-(6-cyano-1-cyclobutyl-1H-benzo[d]imidazol-2-yl)-3-hydroxy-2-methyl-3-phenylbutanamide]
+ | C[C@](O)(CC(=O)Nc1nc2ccc(C#N)cc2n1C1CCC1)c1ccccn1 [Example 20, (S)-N-(6-cyano-1-cyclobutyl-1H-benzo[d]imidazol-2-yl)-3-hydroxy-3-(pyridin-2-yl)butanamide]
+/− | C[C@](O)(CC(=O)Nc1nc2ccc(C#N)cc2n1C1CCC1)c1cccnc1 [Example 21, (S)-N-(6-cyano-1-cyclobutyl-1H-benzo[d]imidazol-2-yl)-3-hydroxy-3-(pyridin-3-yl)butanamide]
+/− | C[C@H](C(=O)Nc1nc2ccc(C#N)cc2n1C1CCC1)N(C)CC(F)(F)F [Example 22, (R)-N-(6-cyano-1-cyclobutyl-1H-benzo[d]imidazol-2-yl)-2-(methyl(2,2,2-trifluoroethyl)amino)propanamide]
++ | C[C@H](C(=O)Nc1nc2ccc(C#N)cc2n1C1CCC1)C(C)(C)C [Example 23, (S)-N-(6-cyano-1-cyclobutyl-1H-benzo[d]imidazol-2-yl)-2,3,3-trimethylbutanamide]
+ | CN(C)C(CC(=O)Nc1nc2ccc(C#N)cc2n1C1CCC1)C(F)(F)F (centres unmarked) [Example 24, N-(6-cyano-1-cyclobutyl-1H-benzo[d]imidazol-2-yl)-3-(dimethylamino)-4,4,4-trifluorobutanamide]
+/− | N#Cc1ccc2nc(NC(=O)C[C@@H](O)c3ccccc3)n(C3CCC3)c2c1 [Example 25, (R)-N-(6-cyano-1-cyclobutyl-1H-benzo[d]imidazol-2-yl)-3-hydroxy-3-phenylpropanamide]
+/− | N#Cc1ccc2nc(NC(=O)C[C@H](O)c3ccccc3)n(C3CCC3)c2c1 [Example 26, (S)-N-(6-cyano-1-cyclobutyl-1H-benzo[d]imidazol-2-yl)-3-hydroxy-3-phenylpropanamide]
+/− | C[C@H](C(=O)Nc1nc2ccc(C#N)cc2n1C1CCC1)C1(O)CCC1 [Example 27, (S)-N-(6-cyano-1-cyclobutyl-1H-benzo[d]imidazol-2-yl)-2-(1-hydroxycyclobutyl)propanamide]
+/− | CC(O)(CC(=O)Nc1nc2ccc(C#N)cc2n1C1CCC1)C1CC1 (centres unmarked) [Example 28, N-(6-cyano-1-cyclobutyl-1H-benzo[d]imidazol-2-yl)-3-cyclopropyl-3-hydroxybutanamide]
+ | C[C@](O)(CC(=O)Nc1nc2ccc(C#N)cc2n1C1CCC1)c1ccccc1 [Example 29, (S)-N-(6-cyano-1-cyclobutyl-1H-benzo[d]imidazol-2-yl)-3-hydroxy-3-phenylbutanamide]
+ | C[C@@](O)(CC(=O)Nc1nc2ccc(C#N)cc2n1C1CCC1)c1ccccc1 [Example 30, (R)-N-(6-cyano-1-cyclobutyl-1H-benzo[d]imidazol-2-yl)-3-hydroxy-3-phenylbutanamide]

SMILES | Kv7.2/7.3 Activity: increase in current over baseline
COc1ccc2nc(NC(=O)CCC3CCCC3)n(C(C)C)c2c1 [Example 3, 3-cyclopentyl-N-(1-isopropyl-6-methoxy-1H-benzo[d]imidazol-2-yl)propanamide] | +++ (>6-fold increase over baseline (+++))
CC(C)(C)CC(=O)Nc1nc2ccc(C#N)cc2n1C1CCC1 [Example 5, N-(6-cyano-1-cyclobutyl-1H-benzo[d]imidazol-2-yl)-3,3-dimethylbutanamide] | +++ (>6-fold increase over baseline (+++))

Reference: patent US12351559B2 (Biohaven Therapeutics Ltd., priority 2014, dated 2025)
